Experimental findings from US11130781B2, “Antimicrobial peptides and their use” (UNIVERSITEIT UTRECHT HOLDING B.V., priority 2017, dated 2021) are described below.

Format in all cases: cell-based
In one series the test system is Pseudomonas aeruginosa. Conditions: 18 h. On the procedure: (§1) Bacteria (2×10E6 CFU/ml) were suspended in MHB+0.9% NaCl and were mixed 1:1 (vol/vol) with peptides dissolved in the same medium in various concentrations (final conc. 0-10 μM) and added to Bioscreen C analyzer plates (Oy Growth Curves Ab Ltd., Helsinki, Finland) and incubated for 18 h at 37° C. while shaking (200 rpm) in a Bioscreen C analyzer (Oy Growth Curves Ab Ltd). The OD (600 nm) was measured every 15 min. Minimal Inhibitory Concentrations (MIC values) were assessed for each peptide.

The subject of the next series is Staphylococcus aureus. Conditions: 18 h. Here is the method:
as §1

For series [1], the system named is primary human nasal epithelial cells. The series can be described thus: Toxicity measurement (WST-1 conversion). Set-up: Toxicity: key to the marks not given beside the values. Here is the method:
The cytotoxic effect of all peptides was determined as previously described (2) using primary human nasal epithelial cells, obtained by nasal brushing of healthy individuals.
Cells were grown to confluence in 96-well plates in Bronchial Epithelial Cell Growth Medium (BEPC, Lonza) at 37° C. and 5% CO2. Peptides were diluted in the same medium to a final concentration of 5 μM and applied to the washed (PBS, twice) cells and incubated for 3 hours or 24 hours at 37° C. After incubation, the medium was removed, cells were washed twice (PBS) and fresh BEPC containing 10% (v/v) cell proliferation reagent WST-1 (Roche) was added to each well.
Conversion of WST-1 is indicative for cell viability and reduced conversion by cells is a measure for cytotoxic effects exerted by peptides. After incubation for 30 minutes at 37° C. the absorbance of each well was measured at 450 nm and 650 nm (reference wavelength). Controls included cells exposed to peptide-free medium (set to 100% WST-1 conversion) and wells without cells (background). Results are based upon 5 individual experiments and defined as follows: “0”, no toxicity; “+”, weakly toxic; “++”, moderately toxic; “+++”, toxic; “++++”, very toxic.

Where two headings read alike, the source gives them in different places. Where no end group is shown, it is not given here.

Take “RRWVQRWIRRWRKWV-NH2 [SEQ ID NO: 7, RRWVQRWIRRWRKWV]”: the “Bioscreen MIC values Pseudomonas aeruginosa” value in the series on Pseudomonas aeruginosa is 1.25 µM. For the same compound, the “Bioscreen MIC values Staphylococcus aureus” value in the series on Staphylococcus aureus is 2.5 µM.
“APKAMRRWVQRWIRRWRPKVFQVTGSSA-NH2 [SEQ ID NO: 22]”: the “Bioscreen MIC values Pseudomonas aeruginosa” value with Pseudomonas aeruginosa stood at 10 µM. In addition, in the series on Staphylococcus aureus, the “Bioscreen MIC values Staphylococcus aureus” value is greater than 10 µM.
Taken in the same sequence, the figures for “APKAMRWVQRWIRRWRPKLQKKGI-NH2 [SEQ ID NO: 26]” were 10 µM and greater than 10 µM.
Taken in the same sequence, the figures for “RRWVQRWIRRWRPKVAAARRWVQRWIRRWRPKV-NH2 [SEQ ID NO: 12]” were 1.25 µM and 1.25 µM.
Taken in the same sequence, the figures for “RRWVRRWIRRWRPKV-NH2 [SEQ ID NO: 25, RRWVRRWIRRWRPKV]” were 5 µM and greater than 10 µM.
With `CC[C@H](C)[C@H](NC(=O)[C@H](CCCCN)NC(=O)[C@H](CCC(=O)O)NC(=O)[C@H](CCCCN)NC(=O)[C@H](CO)NC(=O)[C@H](CCCCN)NC(=O)[C@H](CCCNC(=N)N)NC(=O)[C@H](Cc1ccccc1)NC(=O)[C@H](Cc1ccccc1)NC(=O)[C@H](CC(=O)O)NC(=O)CNC(=O)[C@H](CC(C)C)NC(=O)[C@@H](N)CC(C)C)C(=O)NCC(=O)N[C@@H](CCCCN)C(=O)N[C@@H](CCC(=O)O)C(=O)N[C@@H](Cc1ccccc1)C(=O)N[C@@H](CCCCN)C(=O)N[C@@H](CCCNC(=N)N)C(=O)N[C@H](C(=O)N[C@H](C(=O)N[C@@H](CCC(N)=O)C(=O)N[C@@H](CCCNC(=N)N)C(=O)N[C@H](C(=O)N[C@@H](CCCCN)C(=O)N[C@@H](CC(=O)O)C(=O)N[C@@H](Cc1ccccc1)C(=O)N[C@@H](CC(C)C)C(=O)N[C@@H](CCCNC(=N)N)C(=O)N[C@@H](CC(N)=O)C(=O)N[C@@H](CC(C)C)C(=O)N[C@H](C(=O)N1CCC[C@H]1C(=O)N[C@@H](CCCNC(=N)N)C(=O)N[C@H](C(=O)N[C@@H](CCC(=O)O)C(=O)N[C@@H](CO)C(N)=O)[C@@H](C)O)C(C)C)[C@@H](C)CC)C(C)C)[C@@H](C)CC` [SEQ ID NO: 1], the Toxicity result in series [1] (peptide 5 μM, 3 hours or 24 hours, WST-1 conversion) was “++”. The “toxicity, in words” value in series [1] (primary human nasal epithelial cells) is “more toxic”.
For “RFGRFLRKIRRFRPKVTITIQGSARF-NH2 [SEQ ID NO: 2, reference compound]”, in the series with Pseudomonas aeruginosa, the “Bioscreen MIC values Pseudomonas aeruginosa” value turned out to be 1.25 µM. Further, the “Bioscreen MIC values Staphylococcus aureus” value in the series with Staphylococcus aureus turned out to be 1.25 µM. The “toxicity, in words” value in series [1] is recorded as “extremely toxic”.
Regarding “APKAMRRWVQRWIRRWRPKVLLHYPSQKF-NH2 [SEQ ID NO: 23]”, the “Bioscreen MIC values Pseudomonas aeruginosa” value in the series with Pseudomonas aeruginosa was determined as 2.5 µM. For the same compound, the “Bioscreen MIC values Staphylococcus aureus” value with Staphylococcus aureus was greater than 10 µM.
Taken in the same sequence, the figures for “APKAMRRWVQRWIRRWRPLQKKGI-NH2 [SEQ ID NO: 20]” were 10 µM and greater than 10 µM.
As to “RRWVQRWIRRWRPKVLQKKGI-NH2 [SEQ ID NO: 14]”, the “Bioscreen MIC values Pseudomonas aeruginosa” value in the series on Pseudomonas aeruginosa is 10 µM. Further, the “Bioscreen MIC values Staphylococcus aureus” value in the series on Staphylococcus aureus is greater than 10 µM.
Taken in the same sequence, the figures for “RRWVQRWIRRWRPKRIVQRIKDFLRNLV-NH2 [SEQ ID NO: 11]” were 1.25 µM and 2.5 µM.
Taken in the same sequence, the figures for “APKAMRRWVQRWIRRWRPRLQKKGI-NH2 [SEQ ID NO: 19]” were 5 µM and greater than 10 µM.
Taken in the same sequence, the figures for “RRWVQRWIRRWRPKW-NH2 [SEQ ID NO: 9, RRWVQRWIRRWRPKW]” were 5 µM and 10 µM.
As to “APKAMRRWVQRWIRRWRPRV-NH2 [SEQ ID NO: 17]”, in the series with Pseudomonas aeruginosa, the “Bioscreen MIC values Pseudomonas aeruginosa” value is 5 µM. Further, the “Bioscreen MIC values Staphylococcus aureus” value with Staphylococcus aureus is greater than 10 µM.
As for “APKAMRRWVQRWIRRWRPKVLQKNNYL-NH2 [SEQ ID NO: 21]”, the “Bioscreen MIC values Pseudomonas aeruginosa” value in the series on Pseudomonas aeruginosa worked out at 2.5 µM. The “Bioscreen MIC values Staphylococcus aureus” value with Staphylococcus aureus was greater than 10 µM.
For “APKAMWVQRWIRRWRPLQKKGI-NH2 [SEQ ID NO: 27]”, the “Bioscreen MIC values Pseudomonas aeruginosa” value in the series on Pseudomonas aeruginosa was greater than 10 µM. Moreover, the “Bioscreen MIC values Staphylococcus aureus” value in the series on Staphylococcus aureus was greater than 10 µM. In addition, the “toxicity, in words” value in series [1] was “weakly toxic”.
Turning to “APKAMRRWVQRWIRRWRPKVLQKKGI-NH2 [SEQ ID NO: 18]”, the “Bioscreen MIC values Pseudomonas aeruginosa” value with Pseudomonas aeruginosa came to 5 µM. Also, in the series on Staphylococcus aureus, the “Bioscreen MIC values Staphylococcus aureus” value was greater than 10 µM.
Taken in the same sequence, the figures for “RRWVQRWIRRWRPKVAAARRWV-NH2 [SEQ ID NO: 10]” were 1.25 µM and 10 µM.
As for “RRWVQRWIRRWRPKLQKKGI-NH2 [SEQ ID NO: 16]”, the “Bioscreen MIC values Pseudomonas aeruginosa” value with Pseudomonas aeruginosa stood at 10 µM. Further, the “Bioscreen MIC values Staphylococcus aureus” value with Staphylococcus aureus was greater than 10 µM.
Turning to “RRWVQRWIRRWRPK-NH2 [SEQ ID NO: 8, RRWVQRWIRRWRPK]”, the “Bioscreen MIC values Pseudomonas aeruginosa” value in the series on Pseudomonas aeruginosa was found to be 10 µM. Moreover, in the series with Staphylococcus aureus, the “Bioscreen MIC values Staphylococcus aureus” value is greater than 10 µM.
Regarding “RRWVQRWIRRWRPWV-NH2 [SEQ ID NO: 6, RRWVQRWIRRWRPWV]”, in the series on Pseudomonas aeruginosa, the “Bioscreen MIC values Pseudomonas aeruginosa” value came to 2.5 µM. In addition, in the series on Staphylococcus aureus, the “Bioscreen MIC values Staphylococcus aureus” value came to 10 µM.
Taken in the same sequence, the figures for “RRWVQRWIRRWRKVAAARRWVQRWIRRWRPKV-NH2 [SEQ ID NO: 13]” were 1.25 µM and 1.25 µM.
